The record followed here is the RepoRT retention time repository.

The series in a line: HILIC, Waters ACQUITY UPLC BEH Amide, 100 × 2.1 mm, 1.7 µm; A: water + 0.125% formic acid + 10 mM ammonium formate; B: 5% water + 95% acetonitrile + 0.125% formic acid + 10 mM ammonium formate; gradient (min/%B) 0/100 2/100 7.7/70 9.5/40 10.25/30 12.75/100 17/100. The following applies: stereoisomer not certain.
With `COC1C(O)CC(=O)OC(C)CC=CC=CC(O)C(C)CC(CC=O)C1OC1OC(C)C(OC2CC(C)(O)C(OC(=O)CC(C)C)C(C)O2)C(N(C)C)C1O` (stereo not drawn) [Kitasamycin], the LC retention time was 2.04 min.

For `O=C(O)c1c[nH]c2ccccc12` [Indole-3-carboxylic acid], the LC retention time amounted to 1.41 min.

Turning to `CSc1ncnc2nc[nH]c12` [6-Methylmercaptopurine], the LC retention time came to 1.49 min. To `CN1C(CC(=O)c2ccccc2)CCCC1CC(O)c1ccccc1` (stereo not drawn) [Lobeline A] belongs 2.02 min; to `NC(=O)OCC(COC(N)=O)c1ccccc1` [Felbamate], 1.2 min; to `O=CC=Cc1ccccc1` [Cinnamaldehyde], 9.18 min. With `O=c1[nH]c(=O)c2ncn(C3OC(CO)C(O)C3O)c2[nH]1` (stereo not drawn) [Xanthosine], the LC retention time was 7.3 min. For `CC(=O)C1CCC2C3CCC4=CC(=O)CCC4(C)C3CCC12C` (stereo not drawn) [Progesterone], the LC retention time was 0.97 min. The result for `O=c1cc(-c2ccccc2)oc2ccc(O)cc12` [6-Hydroxyflavone] reads 1.26 min. `OCC1OC(OC2(CO)OC(CO)C(O)C2O)C(O)C(O)C1O` (stereo not drawn) [Sucrose]: the LC retention time came to 8.05 min. The result for `CN1CC(=O)NC1=N` [Creatinine] reads 4.93 min; that for `COc1cccc(C(=O)O)c1N` [2-Amino-3-methoxybenzoic acid], 1.27 min; that for `OCC1OC(n2cnc3c(NC4CCCC4O)ncnc32)C(O)C1O` (stereo not drawn) [N-2-Hydroxycyclopentyladenosine], 3.48 min. To `NCc1[nH]cc(CCC(=O)O)c1CC(=O)O` [Porphobilinogen] belongs 7.4 min. The result for `O=C1N(c2ccccc2)c2ccccc2C1(Cc1ccncc1)Cc1ccncc1` [Linopirdine] reads 1.17 min.

Take `CN1C(C(=O)Nc2ccccn2)=C(O)c2ccccc2S1(=O)=O` [Piroxicam]: the LC retention time was 1.02 min. To `CN(Cc1cnc2nc(N)nc(N)c2n1)c1ccc(C(=O)NC(CCC(=O)O)C(=O)O)cc1` (stereo not drawn) [Methotrexate] belongs 7.67 min.

Regarding `Oc1cc(O)cc(O)c1` [Phloroglucinol], the LC retention time came out at 1.15 min. Turning to `CCN(CC)C(=S)SSC(=S)N(CC)CC` [Disulfiram], the LC retention time came out at 0.93 min. Consider `COC1C(O)C(CO)OC1n1cnc2c(=O)[nH]cnc21` (stereo not drawn) [2'-O-Methylinosine], for which the LC retention time came to 4.06 min. In the case of `CC(=O)Nc1ccc(CC(=O)O)cc1` [Actrarit], the LC retention time was 1.58 min. The result for `CC12CCC3C4CCC(=O)C=C4CCC3C1CCC2O` (stereo not drawn) [Nandrolone] reads 1.06 min.

Turning to `Cc1ncsc1CCO` [4-Methyl-5-thiazoleethanol], the LC retention time amounted to 1.21 min. To `Cc1ncc(CO)c(C=O)c1O` [Pyridoxal] belongs 2.18 min; to `COc1ccccc1N1CCN(CCCNc2cc(=O)n(C)c(=O)n2C)CC1` [Urapidil], 4.58 min; to `CCN1CCCC1CNC(=O)c1cc(S(N)(=O)=O)ccc1OC` (stereo not drawn) [Levosulpiride], 4.37 min. The result for `COc1ccc(CCN)cc1OC` [Homoveratrylamine] reads 4.78 min; that for `NC(Cc1ccc(O)cc1)C(=O)O` (stereo not drawn) [Tyrosine], 7.61 min; that for `CCOC(=O)c1ccc(OC(=O)CCCCCN=C(N)N)cc1` [Gabexate], 3.45 min.

Consider `CCc1nn(CCCN2CCN(c3cccc(Cl)c3)CC2)c(=O)n1CCOc1ccccc1` [Nefazodone], for which the LC retention time worked out at 1.88 min. To `C[N+](C)(C)CC(O)CC(=O)[O-]` (stereo not drawn) [Carnitine] belongs 7.83 min; to `O=C(O)CC1C(=O)Nc2ccccc21` (stereo not drawn) [(2-oxo-2,3-dihydro-1H-indol-3-yl)acetic acid], 2.02 min; to `CCCCCCCCC=CCCCCCCCCCCCC(N)=O` [Erucamide], 1.06 min.

`CC(=O)OCC1OC(Oc2c(-c3ccc(O)c(O)c3)oc3cc(O)cc(O)c3c2=O)C(O)C(O)C1O` (stereo not drawn) [Quercetin-3-O-beta-glucopyranosyl-6'-acetate]: the LC retention time turned out to be 4.61 min. To `CCCCCCCC=O` [Octanal] belongs 6.98 min; to `NC(Cc1ccc(O)c(Cl)c1)C(=O)O` (stereo not drawn) [3-Chlorotyrosine], 7.13 min.

With `CC(=O)N[C@@H](CCC(N)=O)C(=O)O` [N-Acetyl-L-glutamine], the LC retention time was determined as 8.18 min. For `C=C(OP(=O)(O)O)C(=O)O` [Phosphoenolpyruvic acid], the LC retention time was 9.05 min. For `O=Cc1ccc(O)cc1` [4-Hydroxybenzaldehyde], the LC retention time worked out at 1.18 min. With `COc1ccc(NC=O)c(C(=O)CCNC(C)=O)c1` [N-gamma-Acetyl-N-2-formyl-5-methoxykynurenamine], the LC retention time worked out at 1.32 min. On to `Cc1ncc(CO)c(C(=O)O)c1O` [4-Pyridoxic acid], for which the LC retention time amounted to 2.66 min. For `O=C(O)COCCN1CCN(C(c2ccccc2)c2ccc(Cl)cc2)CC1` (stereo not drawn) [Levocetirizine], the LC retention time came to 2.9 min. To `NC1CCN(c2cccc(Cl)n2)CC1` belongs 4.85 min; to `CC(C)CC(N)C(=O)NC(C)C(=O)O` (stereo not drawn) [Leu-Ala], 5 min. To `COc1ccc(C(=O)O)cc1` [P-Anisic acid] belongs 1.3 min; to `Nc1ccc(O)c(C(=O)O)c1`, 3.89 min; to `CCCCCCCCC=CCCCCCCCC(=O)OCC(O)CO` (stereo not drawn) [Monoolein], 1.19 min. To `COc1ccc2c3c1OC1C(=O)CCC4C(C2)N(C)CCC314` (stereo not drawn) [Hydrocodone] belongs 3.8 min. Take `CCOC(=O)OC(C)OC1=C(C(=O)Nc2ccccn2)N(C)S(=O)(=O)c2ccccc21` (stereo not drawn) [Ampiroxicam]: the LC retention time was found to be 0.95 min. To `c1ccc2c(-c3nccs3)c[nH]c2c1` [Camalexin] belongs 1.05 min; to `N=c1ccc2nc3ccc(N)cc3sc-2c1` [Thionin], 5.23 min; to `O=C(O)CNC(=O)c1cccnc1` [Nicotinoylglycine], 7.08 min. Regarding `Cc1cn(C2OC(CO)C(O)C2O)c(=O)[nH]c1=O` (stereo not drawn) [5-Methyluridine], the LC retention time came out at 4.19 min. In the case of `NC(=O)OCCCc1ccccc1` [Phenprobamate], the LC retention time came out at 1.01 min.

Regarding `Oc1ccc(C2COc3cc(O)ccc3C2)cc1` (stereo not drawn) [Equol], the LC retention time was found to be 1.19 min. The result for `CCC(=O)OC(CC(=O)[O-])C[N+](C)(C)C` (stereo not drawn) [Propionylcarnitine] reads 6.41 min; that for `COc1cc(/C=C/C(=O)O)ccc1O` [Ferulic acid], 1.36 min; that for `O=C1CCCCC1=O` [1,2-Cyclohexanedione], 5.77 min. The result for `CN1CC(=O)N2C(Cc3c([nH]c4ccccc34)C2c2ccc3c(c2)OCO3)C1=O` (stereo not drawn) [Taldalafil] reads 1.19 min; that for `NC(N)=NOCCC(N)C(=O)O` (stereo not drawn) [Canavanine], 9.42 min; that for `CC(C)c1nc(CN(C)C(=O)NC(C(=O)NC(Cc2ccccc2)CC(O)C(Cc2ccccc2)NC(=O)OCc2cncs2)C(C)C)cs1` (stereo not drawn) [Ritonavir], 1.15 min. To `O=C1C(CCC(O)c2ccc(F)cc2)C(c2ccc(O)cc2)N1c1ccc(F)cc1` (stereo not drawn) [Ezetimibe] belongs 1.03 min; to `COc1ccc2[nH]cc(CCO)c2c1` [5-Methoxytryptophol], 1.18 min; to `NC(N)=NCCCC(=O)O` [4-Guanidinobutyric acid], 7.72 min. Take `COc1ccc(C=CC(=O)Nc2ccccc2C(=O)O)cc1OC` [Tranilast]: the LC retention time stood at 1.26 min. As to `CS(=O)CCC(N)C(=O)O` (stereo not drawn) [Methioninesulfoxide], the LC retention time is 8.62 min. The result for `C[N+](C)(C)CCO` [Choline [M]+] reads 5.18 min; that for `NC(CCSCC(N)C(=O)O)C(=O)O` (stereo not drawn) [Cystathionine], 9.91 min; that for `CN1CCN(C2=Nc3cc(F)ccc3Cc3ccccc32)CC1` [Fluperlapine], 2.3 min.

Consider `COC1C=COC2(C)Oc3c(C)c(O)c4c(O)c(c(C=NN5CCN(C6CCCC6)CC5)c(O)c4c3C2=O)NC(=O)C(C)=CC=CC(C)C(O)C(C)C(O)C(C)C(OC(C)=O)C1C` (stereo not drawn) [Rifapentine], for which the LC retention time was 1.81 min. To `c1ccc2c(c1)Cc1ccccc1-2` [Fluorene] belongs 6.66 min; to `NC(=O)C=CC(=O)O` [Maleamic acid], 1.12 min.

In the case of `CN1CCN(CCCN2c3ccccc3Sc3ccc(C(F)(F)F)cc32)CC1` [Trifluoperazine], the LC retention time came to 2.15 min.

As to `Nc1ccc2cn[nH]c2c1` [6-Aminoindazole], the LC retention time was found to be 1.26 min. To `CCCCC(N)C(=O)O` (stereo not drawn) [Norleucine] belongs 6.99 min; to `NCCc1cnc[nH]1` [Histamine], 8.29 min. To `OCC(O)C(O)CO` (stereo not drawn) [Threitol] belongs 1.56 min. Regarding `Cc1cc2nc[nH]c2cc1C` [5,6-Dimethylbenzimidazole], the LC retention time is 1.82 min.

As for `COc1cc2c(=O)c(-c3ccc(O)cc3)coc2cc1O` [Glycitein], the LC retention time amounted to 1.32 min. Turning to `O=c1ccn(C2CC(O)C(COP(=O)(O)O)O2)c(=O)[nH]1` (stereo not drawn) [Deoxyuridine monophosphate], the LC retention time was found to be 8.25 min. As for `N#Cc1ccc(C(c2ccc(C#N)cc2)n2cncn2)cc1` [Letrozol], the LC retention time turned out to be 0.98 min.

Regarding `O=c1cccc[nH]1` [2-Pyridone], the LC retention time stood at 2.05 min. The result for `Cn1c(=O)[nH]c2ncn(C)c2c1=O` [1,7-Dimethylxanthine] reads 1.69 min.
